Reference: US6476027B1, “N-hydroxy 4-sulfonyl butanamide compounds” (Monsanto Company, priority 1997, dated 2002)
Counter-ions that a name gives are not always drawn.

How the values were obtained:
recombinant human MMP-1 = target: T1, recombinant human MMP-1 (Homo sapiens, UniProt P03956); experiment: In vitro metalloprotease inhibition, fluorogenic MCA peptide substrate; format: biochemical; conditions: room temperature, pH 7.5, 4 μM substrate, APMA-activated enzyme
T1 construct: made in house; host or cells: transfected HT-1080 cells (provided by Dr. Howard Welgus, Washington University)
T1 sequence (P03956 100-469): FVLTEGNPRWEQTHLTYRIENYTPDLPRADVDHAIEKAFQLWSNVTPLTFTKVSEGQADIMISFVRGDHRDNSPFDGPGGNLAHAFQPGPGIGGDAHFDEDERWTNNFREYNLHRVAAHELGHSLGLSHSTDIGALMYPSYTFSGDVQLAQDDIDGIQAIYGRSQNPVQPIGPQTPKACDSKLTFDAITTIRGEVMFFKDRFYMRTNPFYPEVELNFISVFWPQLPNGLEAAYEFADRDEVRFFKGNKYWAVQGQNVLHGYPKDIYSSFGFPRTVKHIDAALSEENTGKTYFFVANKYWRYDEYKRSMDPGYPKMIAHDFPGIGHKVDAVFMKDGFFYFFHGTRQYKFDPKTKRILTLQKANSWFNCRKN
Experimental: (§1) Briefly, 4-aminophenylmercuric acetate (APMA) or trypsin activated MMPs were incubated with various concentrations of the inhibitor compound at room temperature for 5 minutes.
(§2) More specifically, recombinant human MMP-13 and MMP-1 enzymes were prepared in laboratories of the assignee. MMP-13 was expressed in baculovirus as a proenzyme, and purified first over a heparin agarose column and then over a chelating zinc chloride column. The proenzyme was activated by APMA for use in the assay. MMP-1 expressed in transfected HT-1080 cells was provided by Dr. Howard Welgus of Washington University, St. Louis, Mo. The enzyme was also activated using APMA and was then purified over a hydroxamic acid column.
(§3) MCA-ProLeuGlyLeuDpaAlaArgNH^2, wherein MCA is methoxycoumarin and Dpa is 3-(2,4-dinitrophenyl)-L-2,3-diaminopropionyl alanine.
(§4) The buffer used for assays contained 100 mM Tris-HCl, 100 mM NaCl, 10 mM CaCl2 and 0.05 percent polyethyleneglycol (23) lauryl ether at a pH value of 7.5.

recombinant human MMP-13 = target: T2, recombinant human MMP-13 (Homo sapiens, UniProt P45452); experiment: as above; format: biochemical; conditions: room temperature, pH 7.5, 4 μM substrate, APMA-activated enzyme
T2 construct: made in house
Experimental: as §1, §2, §3, §4

MMP-2 = target: T3, MMP-2 (Homo sapiens, UniProt P08253); experiment: as above; format: biochemical; conditions: room temperature, pH 7.5, 4 μM substrate
T3 sequence (P08253 110-660): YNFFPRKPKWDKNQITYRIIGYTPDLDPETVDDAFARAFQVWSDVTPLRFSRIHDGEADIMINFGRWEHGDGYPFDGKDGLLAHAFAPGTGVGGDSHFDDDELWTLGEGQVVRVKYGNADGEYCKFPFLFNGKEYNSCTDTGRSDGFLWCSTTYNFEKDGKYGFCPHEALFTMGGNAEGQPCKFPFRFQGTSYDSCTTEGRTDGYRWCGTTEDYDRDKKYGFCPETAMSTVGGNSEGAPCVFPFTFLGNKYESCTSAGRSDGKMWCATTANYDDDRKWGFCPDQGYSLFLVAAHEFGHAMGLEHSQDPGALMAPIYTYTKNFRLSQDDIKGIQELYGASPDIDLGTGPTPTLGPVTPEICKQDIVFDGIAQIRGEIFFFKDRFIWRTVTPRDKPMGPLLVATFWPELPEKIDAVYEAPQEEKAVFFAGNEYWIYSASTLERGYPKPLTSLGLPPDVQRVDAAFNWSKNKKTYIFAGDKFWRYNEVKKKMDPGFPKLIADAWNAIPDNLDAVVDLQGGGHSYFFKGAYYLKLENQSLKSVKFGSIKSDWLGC
Experimental: as §1, §3, §4

[1] = tested on: advanced, rapidly progressive, treatment-refractory solid tumor cancers; conditions: cited from earlier work

| SMILES | IC50 (recombinant human MMP-1) [nM] | IC50 (recombinant human MMP-13) [nM] | IC50 (MMP-2) [nM] | effect on cancer-specific antigens used as surrogate markers for biological activity ([1]; Phase I/II, colorectal, pancreatic, ovarian, prostate cancers) | most common drug-related toxicity ([1]; clinical trials, patients with advanced solid tumor cancers) |
| --- | --- | --- | --- | --- | --- |
| CC(C)(CS(=O)(=O)c1ccc(Oc2ccccc2)cc1)[C@H](NC(=O)CN1CCOCC1)C(=O)NO [Example 13a, (S)-N-[1-[(Hydroxyamino)carbonyl]-2,2-dimethyl-3-[(4-phenoxyphenyl)sulfonyl]-propyl]-4-morpholineacetamide Monohydrochloride] | 1800 | 1.8 | 0.6 | – | – |
| CC(C)(CS(=O)(=O)c1ccc(Oc2ccccc2)cc1)[C@@H](O)C(=O)NO [Example 2] | > 10000 | 8.8 | 2 | – | – |
| CC(C)(CS(=O)(=O)c1ccc(Oc2ccccc2)cc1)[C@H](NC(=O)CN1CCOCC1)C(=O)NO [Example 13] | 770 | 1.4 | 0.3 | – | – |
| CC(C)(CS(=O)(=O)c1ccc(Oc2ccccc2)cc1)[C@H](O)C(=O)NO [Example 1] | 6300 | 1.9 | 0.3 | – | – |
| CNC(=O)[C@@H](NC(=O)[C@H](CC(C)C)[C@H](O)C(=O)NO)C(C)(C)C [marimastat, Marimastat] | – | – | – | dose-related reduction in the rise of cancer-specific antigens | musculoskeletal pain and stiffness |
| CC(C)(C)OC(=O)N[C@H](C(=O)NO)C(C)(C)CS(=O)(=O)c1ccc(Oc2ccccc2)cc1 [Example 11] | 50 | < 0.1 | < 0.1 | – | – |
| CC(C)(C)OC(=O)N1CCC(CCS(=O)(=O)c2ccc(Oc3ccccc3)cc2)(C(=O)NO)CC1 [Example 16] | > 10000 | 400 | 169 | – | – |
| O=C(NO)C1(CCS(=O)(=O)c2ccc(Oc3ccccc3)cc2)CCNCC1 [Example 17] | > 10000 | 169 | 70 | – | – |
| CC(C)(CS(=O)(=O)c1ccc(Oc2ccccc2)cc1)[C@H](OCc1ccccn1)C(=O)NO [Example 10] | – | 2.4 | 1.5 | – | – |
| CC(C)(CS(=O)(=O)c1ccc(Oc2ccccc2)cc1)[C@H](OCc1ccncc1)C(=O)NO [Example 9a, (S)-N-Hydroxy-3,3-dimethyl-4-[(4-phenoxyphenyl)sulfonyl]-2-(4-pyridinylmethoxy)butanamide] | 7000 | 3 | 1.3 | – | – |
| O=C(NO)C(O)CCS(=O)(=O)c1ccc(Oc2ccccc2)cc1 (centres unmarked) [Example 4] | > 10000 | 54.4 | 15.8 | – | – |
| CC(C)(CS(=O)(=O)c1ccc(Oc2ccccc2)cc1)[C@H](OCc1cccnc1)C(=O)NO [Example 8a, (S)-N-Hydroxy-3,3-dimethyl-4-[(4-phenoxyphenyl)sulfonyl]-2-(3-pyridinylmethoxy)butanamide] | > 10000 | 5 | 2.2 | – | – |
| CC(C)(CCS(=O)(=O)c1ccc(Oc2ccccc2)cc1)C(=O)NO [Example 3] | > 10000 | 2600 | 1000 | – | – |
| CC(C)(CS(=O)(=O)c1ccc(Oc2ccccc2)cc1)[C@H](N)C(=O)NO [Example 12] | 3300 | 1.6 | 0.3 | – | – |
| CC(CCS(=O)(=O)c1ccc(Oc2ccccc2)cc1)C(=O)NO (centres unmarked) [Example 5] | > 10000 | 1.8 | 3.2 | – | – |
| Cc1ccc(Oc2ccc(S(=O)(=O)CCC(O)C(=O)NO)cc2)cc1C (racemic) [Example 7] | > 10000 | 400 | 120 | – | – |
| O=C(NO)C(CCS(=O)(=O)c1ccc(Oc2ccccc2)cc1)N1CCCCC1 (centres unmarked) [Example 15] | > 10000 | 13.9 | 7.7 | – | – |
| COc1ccc(S(=O)(=O)CCCC(=O)NO)cc1 [Example 6] | – | 2000 | – | – | – |
| CC(C)(CS(=O)(=O)c1ccc(Oc2ccccc2)cc1)[C@H](NC(=O)CN1CCCC1)C(=O)NO [Example 14] | > 10000 | 2.4 | 1.8 | – | – |
